Paper PMC3038857, “Using Nuclear Receptor Activity to Stratify Hepatocarcinogens” (PLoS ONE, 2011)
Like-named read-outs stand apart in the source and are kept apart here.

How the values were obtained:
[1] = tested on: Rat Liver; details: ref ToxRefDB, cited from earlier work
[2] = tested on: Rat Liver; details: ref ToxRefDB, cited from earlier work; remark: listed apart in the source
[3] = tested on: Mouse Liver; details: mouse chronic study, liver; coded 6 / Inf, code not explained in table; ref ToxRefDB; cited from earlier work
[4] = tested on: Rat Liver; details: ref ToxRefDB, cited from earlier work; remark: listed apart in the source
[5] = tested on: Mouse Liver; details: ref ToxRefDB, cited from earlier work
[6] = tested on: CYP2B6; test: CLZD_CYP2B6: Change in expression of CYP2B6 (primary human hepatocytes); format: cell-based; details: 24 hr
Method: (§1) This is a collection of multiplexed gene expression assays focused on Phase I and II xenobiotic metabolizing enzymes and transporters. Human primary cell cultures were treated with chemicals at 5 concentrations (0.004-40 [drawing 42] M) for 6, 24 and 48 hr. Concentration- and time-response profiles of chemicals were measured by the expression of key nuclear receptor target genes, activities of CYP1A enzymes (EROD), and cell morphology. Fourteen gene targets were monitored by quantitative nuclease protection assay including: six representative cytochrome P-450 genes, four hepatic transporters, three Phase II conjugating enzymes, and one endogenous metabolism gene involved in cholesterol synthesis. The target genes associated with nuclear receptor pathways are as follows: [drawing 43] and [drawing 44] with [drawing 45]; [drawing 46] , [drawing 47] , [drawing 48] , [drawing 49] , [drawing 50] and [drawing 51] with [drawing 52]; [drawing 53] , [drawing 54] , [drawing 55] and [drawing 56] with [drawing 57]; [drawing 58] with [drawing 59]; and [drawing 60] with [drawing 61] . Assays were run in primary human hepatocyte cultures by CellzDirect Invitrogen Inc. (Durham, NC), in collaboration with EPA.
(§2) Multiplexed Gene Expression in Human Primary Hepatocytes: This is a collection of multiplexed gene expression assays focused on Phase I and II metabolic enzymes and transporters. […] Fourteen gene targets were monitored by quantitative nuclease protection assay: six representative cytochrome P450 genes, four hepatic transporters, three Phase II conjugating enzymes, and one endogenous metabolism gene involved in cholesterol synthesis. Cells were exposed at 5 concentrations (0.004-40 µM) for 6, 24 or 48 hr. Gene targets are sentinels for five nuclear receptor signaling pathways: AhR, CAR, PXR, FXR, and PPARα. All gene are associated with nuclear receptor pathways: CYP1A1 and CYP1A2 with AHR; ABCB1, ABCG2, CYP2B6, CYP2C9, CYP2C19 and UGT1A1 with CAR; CYP3A4, GSTA2, SLCO1B1 and SULT2A1 with PXR; HMGCS2 with PPARA; and ABCB11 with FXR. […] Detailed description of the methods, data and analysis methods for this dataset will be presented in a separate publication.

[7] = tested on: CYP3A4; test: CLZD_CYP3A4: Change in expression of CYP3A4 (primary human hepatocytes); format: cell-based; details: 24 hr
Method: as §1, §2

[8] = molecular target: T1, PXR (NR1I2) (Homo sapiens, UniProt O75469); test: ATG_PXRE_CIS: Factorial reporter gene assay (HepG2); format: cell-based; design: endogenous in cells; host or cells: HepG2; details: HepG2
T1 sequence (O75469 1-434): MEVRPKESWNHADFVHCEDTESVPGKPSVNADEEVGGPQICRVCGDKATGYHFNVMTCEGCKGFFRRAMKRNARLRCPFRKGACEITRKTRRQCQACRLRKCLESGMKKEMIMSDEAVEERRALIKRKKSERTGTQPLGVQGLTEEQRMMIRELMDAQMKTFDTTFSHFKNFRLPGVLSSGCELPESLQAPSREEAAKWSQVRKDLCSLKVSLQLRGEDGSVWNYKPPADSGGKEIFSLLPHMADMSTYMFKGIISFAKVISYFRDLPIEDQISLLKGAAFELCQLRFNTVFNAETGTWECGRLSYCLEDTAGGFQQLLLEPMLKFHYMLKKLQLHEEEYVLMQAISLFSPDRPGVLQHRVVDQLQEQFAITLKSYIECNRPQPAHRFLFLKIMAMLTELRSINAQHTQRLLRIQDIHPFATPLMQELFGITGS
Method: A multiple reporter transcription unit (MRTU) library consisting of 48 transcription factor binding sites was transfected into the HepG2 human liver hepatoma cell line. In addition to the cis-acting reporter genes (CIS), a modification of the approach was used to generate a trans-system (TRANS) with a mammalian one-hybrid assay consisting of an additional 25 MRTU library reporting the activity of nuclear receptor super-family members. […] These assays were performed by Attagene Inc. (Morrisville NC) under contract to EPA.
In addition to the cis-acting reporter genes (CIS), a modification of the approach was used to generate a trans-system (TRANS) with a mammalian one-hybrid assay consisting of an additional 25 MRTU library reporting the activity of nuclear receptor super-family members. […] Chemicals were then tested in the CIS and TRANS assays at seven concentrations starting at the MTC and followed by three-fold serial dilutions. These assays were performed by Attagene Inc. (Morrisville NC) under contract to EPA. Detailed description of the methods, data and analysis methods for this dataset will be presented in a separate publication.

[9] = tested on: CYP1A2; test: CLZD_CYP1A2: Change in expression of CYP1A2 (primary human hepatocytes); format: cell-based; details: 24 hr
Method: as §1, §2

[10] = tested on: CYP1A1; test: CLZD_CYP1A1: Change in expression of CYP1A1 (primary human hepatocytes); format: cell-based; details: 24 hr
Method: as §1, §2

[11] = rat chronic study, liver, coded 6 / 0, code not explained in table
[12] = mouse chronic study, liver, coded 6 / Inf, code not explained in table

Structure (SMILES)	CHR_Rat_Liver_3_NeoplasticLesion [1, 11]	CHR_Rat_Liver_1_AnyLesion [2, 11]	CHR_Mouse_Liver_2_PreneoplasticLesion [3]	CHR_Rat_Liver_2_PreneoplasticLesion [4, 11]	CHR_Mouse_Liver_1_AnyLesion [5, 12]	CLZD_CYP2B6_24 [6]	CHR_Rat_Liver_3_NeoplasticLesion ([1]; rat, chronic study)	CHR_Rat_Liver_1_AnyLesion ([2]; rat, chronic study)	CLZD_CYP3A4_24 [7]	CHR_Rat_Liver_2_PreneoplasticLesion ([4]; rat, chronic study)	ATG_PXRE_CIS [8]	CLZD_CYP1A2_24 [9]	CLZD_CYP1A1_24 [10]	CHR_Mouse_Liver_1_AnyLesion ([5]; mouse, chronic study)
COC(=O)c1c(C(F)F)nc(C(F)(F)F)c(C2=NCCS2)c1CC(C)C [chemical 297]	0	6	6	0	6									
O=C(Nc1ccccc1)Nc1cnns1 [chemical 298]	0	0	6	0	6									
COc1nc(C)nc(NC(=O)NS(=O)(=O)c2ccccc2OCCCl)n1 [chemical 307]	0	0	6	0	6									
CCCOC/C(=N\c1ccc(Cl)cc1C(F)(F)F)n1ccnc1 [chemical 315]	0	6	6	6	6									
COc1cnc(OC)n2nc(NS(=O)(=O)c3c(OCC(F)F)cccc3C(F)(F)F)nc12 [r239]						4.844	0	6	4.931	0	4.585			
Cc1nc(N(C)C)nc(OC(=O)N(C)C)c1C [r247]						5.267					4.301	5.15		
COc1nc(NC(C)C)nc(NC(C)C)n1 [r255]						4.907	0	0	5.515	0	4.553		5.078	6
